Like-named read-outs stand apart in the source and are kept apart here. Each block holds one compound with its values, some of them ahead of it.
Tests used:
[1] = tested on: Mouse N2a neuroblastoma cells (N2a cells); assay: Biocompatibility, XTT cell survival test; assay type: cell-based; conditions: 0.1, 1, 2, 5 and 10 wt % in medium, 6 h, FIG. 7
Experimental: Mouse N2a neuroblastoma cells (N2a cells) were cultured and maintained in DMEM High Glucose with L-glutamine and sodium pyruvate (DMEM-HPA-P10, Capricorn Scientific) containing 10% fetal bovine serum (FBS). The N2a cells were seeded in a 6-well plate with a density of 2×10^5 cells/well overnight. Then the medium was replaced with a testing DMEM High Glucose medium containing 0.1 wt %, 1 wt %, 2 wt %, 5 wt % and 10 wt % of [DMePIm][OMs] and the cells were incubated in an incubator (37° C., 5% CO2 humidified atmosphere) for 6 h. The testing medium was removed, the cells were washed, and new DMEM High Glucose containing 10% FBS was added and incubated for another 12 h. After that, the cells were subjected to XTT test (X12223, purchased from Thermo Fisher) for determining cell survival rate.

gliadin = assay: Solubility of gliadin in ionic solutions (excess gliadin, Wheat/Gluten (Gliadin) ELISA Kit); assay type: physicochemical
Experimental: Gliadin is a hydrophobic protein present in gluten of wheat. Unless specifically stated, gliadin (G3375, Sigma-Aldrich; CAS No. 9007-90-3) or was used in the following tests.
First of all, ionic solutions of [DMePIm][OMs] with a concentration of 0.1 wt %, 1 wt %, 2 wt %, 5 wt % and 10 wt % in water were prepared. 3 grams (g) of gliadin (excess amount) was added into 10 mL of each [DMePIm][OMs] ionic solution, mixed homogenously and stood still for 5 min to give sample solutions for Test Example 1. All sample solutions were centrifuged at 8500 rpm for 3 min and filtered with a filter with 0.22 μm pore size. Water (0 wt %) was used as the control group. After that, Wheat/Gluten (Gliadin) ELISA Kit (Crystal chem, AOAC No. 011804) was used to determine the concentration and solubility of gliadin. Since the examination of the Wheat/Gluten (Gliadin) ELISA Kit is about 100 ppm, the gliadin concentration was determined by diluted sample solutions with at least 50-fold dilution by the corresponding ionic solution, in order to calculate the gliadin concentration of the sample solutions.
Similar with Test Example 1, except that 3 g of gliadin was added into 10 mL of 1 wt % ionic solution of [DMeIm][OMs](value “a” of Formula I is 0), [TMeIm][OMs] (a=1), [DMePrIm][OMs] (a=3), [DMePIm][OMs] (a=5), [DMeHpIm][OMs] (a=7), [DMeNnIm][OMs] (a=9) or [DMeDdIm][OMs] (a=12). […] (a=5), [DMeHpIm][OMs] (a=7), [DMeNnIm][OMs] ([…]) and [DMeDdIm][OMs] (a=12) ionic solutions, in which the corresponding groups attached on 3-position of the 1,2-dimethyl imidazolium had different carbon numbers (value “a” of Formula I) of 5, 7, 9 and 12, respectively. The [DMeDdIm][OMs]
Similar with Test Example 1, except that 3 g of gliadin was respectively added into 10 mL of 1 wt % ionic solutions of [DMePIm][Cl], [DMePIm][F], [DMePIm][OMs], [DMePIm][NO3], [DMePIm][H2PO4] and [DMePIm][HSO4].

concentration of gliadin over time (gliadin; 1 wt % ionic solution, 1-30 min, FIG. 2): reached its maximum solubility shortly
solubility of gliadin in ionic solutions with different cations (gliadin; 1 wt % ionic solution, FIG. 3): higher solubility
solubility of gliadin in ionic solutions with different anions (gliadin; 1 wt % ionic solution, FIG. 4): greatest solubility
Compound: CCCCC[n+]1ccn(C)c1C [[DMePIm][OMs], [1,2-dimethyl, 3-pentyl imidazolium][methanesulfonyl]]
survival rates of cells [1]: high

solubility of gliadin in ionic solutions with different cations (gliadin): higher solubility
Compound: CCCCCCC[n+]1ccn(C)c1C.CS(=O)(=O)[O-] [[DMeHpIm][OMs], [1,2-dimethyl, 3-heptyl imidazolium][methanesulfonyl]]

solubility of gliadin in ionic solutions with different cations (gliadin): higher solubility
Compound: CCCCCCCCC[n+]1ccn(C)c1C.CS(=O)(=O)[O-] [[DMeNnIm][OMs], [1,2-dimethyl, 3-nonyl imidazolium][methanesulfonyl]]

viscosity of ionic solution (gliadin; 1 wt % ionic solution): higher viscosity
Compound: CCCCCCCCCCCC[n+]1ccn(C)c1C.CS(=O)(=O)[O-] [[DMeDdIm][OMs], [1,2-dimethyl, 3-dodecyl imidazolium][methanesulfonyl]]
